In patent US7317013B2 (priority 2003, dated 2008):
Counter-ions that a name gives are not always drawn.

molecular target: T1, airway epithelial sodium currents (epithelial Na+ channel, ENaC) (Canis lupus familiaris, UniProt A0A8I3MKE6+A0A8I3Q679+Q95165); assay: Sodium channel blocking activity: inhibition of short circuit current (ISC) in airway epithelial monolayers mounted in Ussing chambers; format: cell-based, canine; details: lumenal drug addition, bronchial epithelia, mean ± spread (n in cell)
T1 sequence (A0A8I3Q679 1-649): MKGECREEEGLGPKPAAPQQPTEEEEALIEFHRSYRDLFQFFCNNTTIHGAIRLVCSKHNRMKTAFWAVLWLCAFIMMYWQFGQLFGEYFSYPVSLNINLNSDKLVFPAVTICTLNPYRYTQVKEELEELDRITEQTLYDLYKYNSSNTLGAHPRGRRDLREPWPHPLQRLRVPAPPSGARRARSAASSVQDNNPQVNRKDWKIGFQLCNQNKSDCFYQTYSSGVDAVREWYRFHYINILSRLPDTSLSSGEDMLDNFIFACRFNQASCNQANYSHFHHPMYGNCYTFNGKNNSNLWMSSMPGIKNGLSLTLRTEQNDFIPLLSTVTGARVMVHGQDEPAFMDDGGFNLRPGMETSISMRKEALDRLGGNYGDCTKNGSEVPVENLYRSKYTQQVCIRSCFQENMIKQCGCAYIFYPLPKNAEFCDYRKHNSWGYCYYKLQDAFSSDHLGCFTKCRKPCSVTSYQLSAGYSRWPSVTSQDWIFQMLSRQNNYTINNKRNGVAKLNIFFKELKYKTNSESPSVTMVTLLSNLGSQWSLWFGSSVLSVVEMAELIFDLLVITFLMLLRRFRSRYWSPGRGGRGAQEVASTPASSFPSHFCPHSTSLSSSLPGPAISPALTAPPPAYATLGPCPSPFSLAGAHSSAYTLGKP
T1 sequence (Q95165 1-641): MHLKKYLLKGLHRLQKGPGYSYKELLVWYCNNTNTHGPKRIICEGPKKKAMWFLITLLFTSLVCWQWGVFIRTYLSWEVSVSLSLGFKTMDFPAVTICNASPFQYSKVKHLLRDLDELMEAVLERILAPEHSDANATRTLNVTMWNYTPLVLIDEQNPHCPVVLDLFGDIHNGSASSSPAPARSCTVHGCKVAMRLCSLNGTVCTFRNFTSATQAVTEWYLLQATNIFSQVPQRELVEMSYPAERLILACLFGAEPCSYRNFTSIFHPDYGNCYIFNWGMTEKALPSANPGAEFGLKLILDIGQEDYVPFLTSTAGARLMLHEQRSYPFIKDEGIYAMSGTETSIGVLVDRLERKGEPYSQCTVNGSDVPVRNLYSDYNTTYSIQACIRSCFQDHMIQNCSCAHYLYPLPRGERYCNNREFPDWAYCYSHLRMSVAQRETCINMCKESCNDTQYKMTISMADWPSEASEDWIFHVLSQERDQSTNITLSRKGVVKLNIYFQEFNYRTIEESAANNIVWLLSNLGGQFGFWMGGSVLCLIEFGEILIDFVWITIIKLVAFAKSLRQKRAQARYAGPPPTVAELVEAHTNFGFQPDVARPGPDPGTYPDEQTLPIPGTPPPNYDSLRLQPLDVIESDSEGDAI
T1 sequence (A0A8I3MKE6 1-646): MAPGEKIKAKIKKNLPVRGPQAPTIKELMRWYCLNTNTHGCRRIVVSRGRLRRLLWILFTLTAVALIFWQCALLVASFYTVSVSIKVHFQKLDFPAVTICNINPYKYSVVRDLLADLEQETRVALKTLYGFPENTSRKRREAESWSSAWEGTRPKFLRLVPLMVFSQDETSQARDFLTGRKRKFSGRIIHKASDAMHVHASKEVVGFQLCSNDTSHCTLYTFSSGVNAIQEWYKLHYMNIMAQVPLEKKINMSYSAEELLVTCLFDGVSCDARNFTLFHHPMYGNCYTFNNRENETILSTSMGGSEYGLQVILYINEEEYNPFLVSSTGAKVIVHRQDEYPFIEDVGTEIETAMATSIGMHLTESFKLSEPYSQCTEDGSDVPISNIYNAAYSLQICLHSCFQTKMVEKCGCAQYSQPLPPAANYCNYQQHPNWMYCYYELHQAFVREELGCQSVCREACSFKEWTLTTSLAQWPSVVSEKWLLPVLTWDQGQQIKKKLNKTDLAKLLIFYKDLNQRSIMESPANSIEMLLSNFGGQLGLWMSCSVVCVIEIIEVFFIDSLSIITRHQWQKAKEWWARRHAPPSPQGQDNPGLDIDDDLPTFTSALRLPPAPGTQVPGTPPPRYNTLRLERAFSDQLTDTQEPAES
Description: One assay used to assess mechanism of action and/or potency of the compounds of the present invention involves the determination of lumenal drug inhibition of airway epithelial sodium currents measured under short circuit current (ISC) using airway epithelial monolayers mounted in Ussing chambers. Cells obtained from freshly excised human, dog, sheep or rodent airways are seeded onto porous 0.4 micron Snapwell™ Inserts (CoStar), cultured at air-liquid interface (ALI) conditions in hormonally defined media, and assayed for sodium transport activity (ISC) while bathed in Krebs Bicarbonate Ringer (KBR) in Using chambers. All test drug additions are to the lumenal bath with half-log dose addition protocols (from 1×10^−11 M to 3×10^−5 M), and the cumulative change in ISC (inhibition) recorded. All drugs are prepared in dimethyl sulfoxide as stock solutions at a concentration of 1×10^−2 M and stored at −20° C. Eight preparations are typically run in parallel; two preparations per run incorporate amiloride and/or benzamil as positive controls. After the maximal concentration (5×10^−5 M) is administered, the lumenal bath is exchanged three times with fresh drug-free KBR solution, and the resultant ISC measured after each wash for approximately 5 minutes in duration. Reversibility is defined as the percent return to the baseline value for sodium current after the third wash. All data from the voltage clamps are collected via a computer interface and analyzed off-line.
Dose-effect relationships for all compounds are considered and analyzed by the Prism 3.0 program. IC50 values, maximal effective concentrations, and reversibility are calculated and compared to amiloride and benzamil as positive controls.
Statistics: Data were analyzed using SYSTAT for Windows, version 5. Data were analyzed using a two-way repeated ANOVA (to assess overall effects), followed by a paried t-test to identify differences between specific pairs. Significance was accepted when P was less than or equal to 0.05. […] The compounds can be further tested tested for potency in canine bronchial epithelia using the in vitro assay described above. The results for the compounds of the present invention are reported as fold-enhancement values relative to amiloride.

| Compound | EC50 |
| --- | --- |
| Cl.Cl.Cl.N=C(N)NCCCN1CCC(CCCCNC(=N)NC(=O)c2nc(Cl)c(N)nc2N)CC1 [compound 25795] | 37 ± 5 nM |

same assay, conditions: relative potency for PSA 4022 = 100 using EC50 from PSA 4022 in same run

| Compound | Fold Amiloride** (PSA 4022 = 100) |
| --- | --- |
| N=C(NCCCCC1CCN(CCN)CC1)NC(=O)c1nc(Cl)c(N)nc1N [compound 25455] | 5 ± 1 (n = 7) |
| CC(C)(C)OC(=O)N=C(NCCCN1CCC(CCCCNC(=N)NC(=O)c2nc(Cl)c(N)nc2N)CC1)NC(=O)OC(C)(C)C [compound 25569] | 41 ± 9 (n = 9) |
| N=C(NCCCCC1CCN(CCCO)CC1)NC(=O)c1nc(Cl)c(N)nc1N [compound 25310] | 5 ± 2 (n = 8) |
| N=C(NCCCCC1CCN(CCCN)CC1)NC(=O)c1nc(Cl)c(N)nc1N [compound 25510] | 3 ± 9 (n = 7) |
| N=C(NCCCCC1CCN(CC(O)CO)CC1)NC(=O)c1nc(Cl)c(N)nc1N (centres unmarked) [compound 25456] | 6 ± 2 (n = 7) |
| N=C(NCCCCC1CCN(CCO)CC1)NC(=O)c1nc(Cl)c(N)nc1N [compound 25193] | 8 ± 3 (n = 6) |
| Cl.Cl.Cl.N=C(N)NCCCN1CCC(CCCCNC(=N)NC(=O)c2nc(Cl)c(N)nc2N)CC1 [compound 25795] | 18 ± 7 (n = 4) |
| CC(C)(C)OC(=O)NCCCN1CCC(CCCCNC(=N)NC(=O)c2nc(Cl)c(N)nc2N)CC1 [compound 25452] | 8 ± 1 (n = 6) |

tested on: not given; assay: not given; details: not given

| Compound | melting point |
| --- | --- |
| N=C(NCCCCC1CCN(CCCN)CC1)NC(=O)c1nc(Cl)c(N)nc1N (as salt: hydrochloride) | 105 to 108 °C |
| N=C(NCCCCC1CCN(CC(O)CO)CC1)NC(=O)c1nc(Cl)c(N)nc1N (centres unmarked) | 188 to 191 °C |
| N=C(NCCCCC1CCN(CCCO)CC1)NC(=O)c1nc(Cl)c(N)nc1N (as salt: hydrochloride) | 165 to 167 °C |
| N=C(NCCCCC1CCN(CCN)CC1)NC(=O)c1nc(Cl)c(N)nc1N (as salt: hydrochloride) | > 200 °C |
| N=C(N)NCCCN1CCC(CCCCNC(=N)NC(=O)c2nc(Cl)c(N)nc2N)CC1 (as salt: hydrochloride) | 176 to 178 °C |
